From patent publication US20160075765A1, “MODIFIED COLLAGEN MOLECULES” (AGENCY FOR SCIENCE, TECHNOLOGY AND RESEARCH, priority 2013, published 2016)

How the values were obtained:
[1] = Thermal unfolding (thermal denaturation) followed by circular dichroism at 225 nm; assay type: physicochemical; details: CD, minimum of the derivative of fraction folded plot; 0.2 mM peptide, 10 mM sodium phosphate pH 7.0; not preheated; mixtures at ratio 1:2
Experimental: (§1) CD spectra were recorded on an Aviv 410 circular dichroism spectrometer equipped with temperature controller. Peptide solutions at concentrations of 200 μM were used. All sample solutions made in 10 mM sodium phosphate-dibasic buffer (pH 7.0) were equilibrated for 24 hr at 4° C. before CD measurements. A Quartz Cell of 1 mm path length was used. For wavelength scan, temperature was increased to the desired points at a rate of 10° C./hr and the sample solutions were equilibrated for 10 min before the measurements. Spectra were recorded from 260 to 190 nm and mean residue ellipticity [θ] was calculated as follows;
(§2) θ represents the ellipticity in millidegrees, N the number of amino acid residues, c the molar concentration in mol·L^−1, and l the cell path length in cm. Thermal denaturation curves were obtained at final peptide concentrations of 0.2 mM and molar ellipticity at 225 nm was measured as a function of temperature in a range of 5 to 80° C. at a heating rate of 10° C./hr. All annealed samples were heated for 30 min at 85° C. and then cooled down to 4° C. at a rate of 1° C./min followed by equilibration for 24 hr at 4° C. before the measurements. The melting temperatures were determined from the minimum points in the first derivative of the melting curves.

[2] = CD wavelength scan, helical conformation at a set temperature; assay type: physicochemical; details: 200 μM peptide, pH 7.0
Experimental: as §1, §2

Substance | Tm (melting temperature of triple helix) [1] | conformation by CD at 25° C. [2]
Ac-(PXG)2-(PKG)4-(PXG)2-C(O)NH2 [Peptide 2] | No triple helix | random coil conformations
Ac-(PXG)2-(PRG)4-(PXG)2-C(O)NH2 [Peptide 3] | 39.4 °C | retained the PPII helical structure
